Tested on: patients with advanced solid tumors
Assay: Safety: treatment-emergent and senaparib-related adverse events graded per NCI CTCAE v4.03
Format: in vivo
Protocol: This phase I, open-label, multicenter, dose-escalation, and dose-expansion study was conducted at three national clinical institutions in China. […] At baseline, all patients enrolled in the dose-escalation phase had to have at least one evaluable lesion, and those in the dose-expansion period had to have at least one measurable lesion, according to Response Evaluation Criteria in Solid Tumors version 1.1 (RECIST v1.1).[16] Entry to the dose-expansion cohort required the presence of a BRCA mutation, with the exception of patients with ovarian carcinoma, fallopian tube carcinoma, and primary peritoneal carcinoma. Full study eligibility criteria are provided in Supplementary Table S1.
Dose escalation was conducted using a modified Fibonacci 3 + 3 method (Supplementary Fig. S1).[17] Patients were administered oral senaparib from a planned starting dose of 2 mg once daily (QD), with preliminary dose escalation to 120 mg via nine dose groups, in order of their entry into the study. At a given dose level, each patient received a single dose of senaparib followed by a 7-day washout period. They then entered a continuous dosing period to confirm the safety and PK profile, in which they received senaparib QD from day 1 to day 21 of each 3-week cycle. Progression to the next higher dose required approval from the Data Safety Monitoring Committee (DSMC) upon review of the safety and PK data of the previous dose. A 50-mg twice-daily (BID) dosing group was added (planned enrollment, n = 6 patients) based on a DSMC review of the safety, PK, and efficacy analysis of the completed QD dose groups in the phase I clinical trial of senaparib dose escalation in Australia (NCT03507543), which commenced prior to the start of this trial.
The dose-expansion period included 3 populations: dose groups in which at least one patient achieved complete response (CR) or partial response (PR) per RECIST v1.1[16] and 1 dose group higher (evaluated for safety), as well as the dose group at the maximum tolerated dose (MTD)/recommended phase II dose (RP2D). Each of these groups included those patients in the respective dose-escalation group plus a planned additional 10 patients (approximately 20 patients in the MTD/RP2D group) with BRCA^mut+ solid tumors (ovarian, breast, or prostate cancer were preferred, and ovarian cancer could be BRCA wild type). Patients received senaparib monotherapy orally QD or BID (50-mg dose only) over each 3-week cycle until disease progression or unacceptable toxicity.
DLTs were predefined toxicities (Supplementary Table S2) recorded over the 7 days following the single-dose administration of senaparib and during the first treatment cycle (day 1-day 21) for each dose group in the dose-escalation period only. The MTD was defined as the maximum dose at which ≤1/6 patients experienced a DLT. Senaparib PK parameters were derived from blood samples collected from patients after the single administration, and at regular intervals during the first cycle of the dose-escalation and dose-expansion periods. Plasma concentrations of senaparib were determined using high-performance liquid chromatography-tandem mass spectrometry. Tumor response was assessed every 6 weeks per RECIST v1.1,[16] recording objective response rate (ORR), disease control rate (DCR), duration of response (DOR), and progression-free survival (PFS) by dose level for all patients and for those harboring BRCA^mut+ tumors.

O=C(c1cc(Cn2c(=O)[nH]c(=O)c3c(F)cccc32)ccc1F)N1CCN(c2ncccn2)CC1 [Senaparib]
Appetite decreased TRAE, All (80 mg QD n = 9): 3 (33.3) n (%) | Appetite decreased TRAE, Gr≥3 (80 mg QD n = 9): 0 n (%) | Asthenia TRAE, All (80 mg QD n = 9): 2 (22.2) n (%) | Asthenia TRAE, Gr≥3 (80 mg QD n = 9): 0 n (%) | Blood bilirubin increased TRAE, All (80 mg QD n = 9): 2 (22.2) n (%) | Blood bilirubin increased TRAE, Gr≥3 (80 mg QD n = 9): 0 n (%) | Blood creatinine increased TRAE, All (80 mg QD n = 9): 2 (22.2) n (%) | Blood creatinine increased TRAE, Gr≥3 (80 mg QD n = 9): 0 n (%) | Hypokalemia TRAE, All (80 mg QD n = 9): 3 (33.3) n (%) | Nausea TRAE, All (80 mg QD n = 9): 4 (44.4) n (%) | Nausea TRAE, Gr≥3 (80 mg QD n = 9): 0 n (%) | Neutrophil count decreased TRAE, All (80 mg QD n = 9): 4 (44.4) n (%) | Neutrophil count decreased TRAE, Gr≥3 (80 mg QD n = 9): 1 (11.1) n (%) | Platelet count decreased TRAE, All (80 mg QD n = 9): 4 (44.4) n (%) | Platelet count decreased TRAE, Gr≥3 (80 mg QD n = 9): 2 (22.2) n (%) | SAEs, events (80 mg QD n = 9): 5 n ev | SAEs, patients (80 mg QD n = 9): 5 (55.6) n (%) | TEAE Grade ≥3, events (80 mg QD n = 9): 12 n ev | TEAE Grade ≥3, patients (80 mg QD n = 9): 6 (66.7) n (%) | TEAEs leading to death, events (80 mg QD n = 9): 1 n ev | TEAEs leading to death, patients (80 mg QD n = 9): 1 (11.1) n (%) | TEAEs leading to dose discontinuation, events (80 mg QD n = 9): 4 n ev | TEAEs leading to dose discontinuation, patients (80 mg QD n = 9): 1 (11.1) n (%) | TEAEs leading to dose interruption, events (80 mg QD n = 9): 9 n ev | TEAEs leading to dose interruption, patients (80 mg QD n = 9): 4 (44.4) n (%) | TEAEs leading to dose reduction, events (80 mg QD n = 9): 3 n ev | TEAEs leading to dose reduction, patients (80 mg QD n = 9): 3 (33.3) n (%) | TRAEs Grade ≥3, events (80 mg QD n = 9): 10 n ev | TRAEs Grade ≥3, patients (80 mg QD n = 9): 5 (55.6) n (%) | TRAEs, events (80 mg QD n = 9): 109 n ev | TRAEs, patients (80 mg QD n = 9): 9 (100) n (%) | Vomiting TRAE, All (80 mg QD n = 9): 2 (22.2) n (%) | Vomiting TRAE, Gr≥3 (80 mg QD n = 9): 1 (11.1) n (%) | WBC decreased TRAE, All (80 mg QD n = 9): 5 (55.6) n (%) | WBC decreased TRAE, Gr≥3 (80 mg QD n = 9): 1 (11.1) n (%) | ALT increased TRAE, All (100 mg QD n = 20): 5 (25.0) n (%) | ALT increased TRAE, Gr≥3 (100 mg QD n = 20): 0 n (%) | AST increased TRAE, All (100 mg QD n = 20): 4 (20.0) n (%) | AST increased TRAE, Gr≥3 (100 mg QD n = 20): 1 (5.0) n (%) | Anemia TRAE, All (100 mg QD n = 20): 11 (55.0) n (%) | Anemia TRAE, Gr≥3 (100 mg QD n = 20): 4 (20.0) n (%) | Any TEAE, All (100 mg QD n = 20): 20 (100) n (%) | Any TEAE, Gr≥3 (100 mg QD n = 20): 7 (35.0) n (%) | Any TEAE, events (100 mg QD n = 20): 158 n ev | Any TEAE, patients (100 mg QD n = 20): 20 (100) n (%) | Any TRAE, All (100 mg QD n = 20): 20 (100) n (%) | Any TRAE, Gr≥3 (100 mg QD n = 20): 7 (35.0) n (%) | Appetite decreased TRAE, All (100 mg QD n = 20): 5 (25.0) n (%) | Appetite decreased TRAE, Gr≥3 (100 mg QD n = 20): 0 n (%) | Asthenia TRAE, All (100 mg QD n = 20): 5 (25.0) n (%) | Asthenia TRAE, Gr≥3 (100 mg QD n = 20): 0 n (%) | Blood bilirubin increased TRAE, All (100 mg QD n = 20): 3 (15.0) n (%) | Blood bilirubin increased TRAE, Gr≥3 (100 mg QD n = 20): 0 n (%) | Blood creatinine increased TRAE, All (100 mg QD n = 20): 2 (10.0) n (%) | Blood creatinine increased TRAE, Gr≥3 (100 mg QD n = 20): 0 n (%) | Hypokalemia TRAE, All (100 mg QD n = 20): 0 n (%) | Hypokalemia TRAE, Gr≥3 (100 mg QD n = 20): 0 n (%) | Nausea TRAE, All (100 mg QD n = 20): 4 (20.0) n (%) | Nausea TRAE, Gr≥3 (100 mg QD n = 20): 0 n (%) | Neutrophil count decreased TRAE, All (100 mg QD n = 20): 5 (25.0) n (%) | Neutrophil count decreased TRAE, Gr≥3 (100 mg QD n = 20): 2 (10.0) n (%) | Platelet count decreased TRAE, All (100 mg QD n = 20): 6 (30.0) n (%) | Platelet count decreased TRAE, Gr≥3 (100 mg QD n = 20): 1 (5.0) n (%) | SAEs, events (100 mg QD n = 20): 1 n ev | SAEs, patients (100 mg QD n = 20): 1 (5.0) n (%) | TEAE Grade ≥3, events (100 mg QD n = 20): 9 n ev | TEAE Grade ≥3, patients (100 mg QD n = 20): 7 (35.0) n (%) | TEAEs leading to death, events (100 mg QD n = 20): 0 n ev | TEAEs leading to death, patients (100 mg QD n = 20): 0 n (%) | TEAEs leading to dose discontinuation, events (100 mg QD n = 20): 1 n ev | TEAEs leading to dose discontinuation, patients (100 mg QD n = 20): 1 (5.0) n (%) | TEAEs leading to dose interruption, events (100 mg QD n = 20): 8 n ev | TEAEs leading to dose interruption, patients (100 mg QD n = 20): 6 (30.0) n (%) | TEAEs leading to dose reduction, events (100 mg QD n = 20): 6 n ev | TEAEs leading to dose reduction, patients (100 mg QD n = 20): 4 (20.0) n (%) | TRAEs Grade ≥3, events (100 mg QD n = 20): 9 n ev | TRAEs Grade ≥3, patients (100 mg QD n = 20): 7 (35.0) n (%) | TRAEs, events (100 mg QD n = 20): 144 n ev | TRAEs, patients (100 mg QD n = 20): 20 (100) n (%) | Vomiting TRAE, All (100 mg QD n = 20): 5 (25.0) n (%) | Vomiting TRAE, Gr≥3 (100 mg QD n = 20): 0 n (%) | WBC decreased TRAE, All (100 mg QD n = 20): 9 (45.0) n (%) | WBC decreased TRAE, Gr≥3 (100 mg QD n = 20): 1 (5.0) n (%) | ALT increased TRAE, All (120 mg QD n = 4): 2 (50.0) n (%) | ALT increased TRAE, Gr≥3 (120 mg QD n = 4): 1 (25.0) n (%) | AST increased TRAE, All (120 mg QD n = 4): 2 (50.0) n (%) | AST increased TRAE, Gr≥3 (120 mg QD n = 4): 0 n (%) | Anemia TRAE, All (120 mg QD n = 4): 3 (75.0) n (%) | Anemia TRAE, Gr≥3 (120 mg QD n = 4): 1 (25.0) n (%) | Any TEAE, All (120 mg QD n = 4): 4 (100) n (%) | Any TEAE, Gr≥3 (120 mg QD n = 4): 3 (75.0) n (%) | Any TEAE, events (120 mg QD n = 4): 52 n ev | Any TEAE, patients (120 mg QD n = 4): 4 (100) n (%) | Any TRAE, All (120 mg QD n = 4): 4 (100) n (%) | Any TRAE, Gr≥3 (120 mg QD n = 4): 3 (75.0) n (%) | Appetite decreased TRAE, All (120 mg QD n = 4): 1 (25.0) n (%) | Appetite decreased TRAE, Gr≥3 (120 mg QD n = 4): 0 n (%) | Asthenia TRAE, All (120 mg QD n = 4): 2 (50.0) n (%) | Asthenia TRAE, Gr≥3 (120 mg QD n = 4): 0 n (%) | Blood bilirubin increased TRAE, All (120 mg QD n = 4): 2 (50.0) n (%) | Blood bilirubin increased TRAE, Gr≥3 (120 mg QD n = 4): 1 (25.0) n (%) | Blood creatinine increased TRAE, All (120 mg QD n = 4): 1 (25.0) n (%) | Blood creatinine increased TRAE, Gr≥3 (120 mg QD n = 4): 0 n (%) | Hypokalemia TRAE, All (120 mg QD n = 4): 0 n (%) | Hypokalemia TRAE, Gr≥3 (120 mg QD n = 4): 0 n (%) | Nausea TRAE, All (120 mg QD n = 4): 1 (25.0) n (%) | Nausea TRAE, Gr≥3 (120 mg QD n = 4): 0 n (%) | Neutrophil count decreased TRAE, All (120 mg QD n = 4): 1 (25.0) n (%) | Neutrophil count decreased TRAE, Gr≥3 (120 mg QD n = 4): 0 n (%) | Platelet count decreased TRAE, All (120 mg QD n = 4): 1 (25.0) n (%) | Platelet count decreased TRAE, Gr≥3 (120 mg QD n = 4): 0 n (%) | SAEs, events (120 mg QD n = 4): 1 n ev | SAEs, patients (120 mg QD n = 4): 1 (25.0) n (%) | TEAE Grade ≥3, events (120 mg QD n = 4): 6 n ev | TEAE Grade ≥3, patients (120 mg QD n = 4): 3 (75.0) n (%) | TEAEs leading to death, events (120 mg QD n = 4): 0 n ev
